Data reported in US12410189B2, “Polymorphs and solid forms of (S)-2-2((2-((S)-4-(difluoromethyl)-2-oxooxazolidin-3-yl)-5,6-dihydrobenzo[f]imidazo[1,2-d][1,4]oxazepin-9-yl)amino)propanamide, and methods of production” (Genentech, Inc., priority 2017, dated 2025).
≈ marks a conversion by molar mass, not a printed value. Entries after “also recorded” stand apart in the source; their conditions may differ.

Assays:
[1] = Jet milling of Form A, physical form after size reduction; format: physicochemical; conditions: jet mill
Procedure: (§1) Milling of Form A may optimize certain PK properties. A scaled up Form A lot was milled and also placed on stability studies (40° C./75% RH, 25° C./60% RH, open vials). Three more lots were also milled which behaved similarly upon milling. A milled representative lot was characterized and the physical form was determined. This lot was slurried in 100% ethanol to obtain Form A and milled using a jet mill at for 3.5 hrs with 60 psi pressure. […] The particle size analysis (PSD) was determined to be D10=0.7 μm, D50=2.7 μm, D90=6.7 μm. Post milling, a portion of the API (Active Pharmaceutical Ingredient, i.e. GDC-0077) batch was placed on stability at 40° C./75% RH and 25° C./60% RH in open vials. Solid-state data was collected at 4 and 8 weeks to evaluate effect of temperature and humidity on the physical form. The milled and stability samples were characterized by XRPD, PLM, DSC, TGA, Water sorption analysis and surface area analysis. DSC runs were performed in the modulated mode using non-hermetically crimped pans, a heating rate of 1° C./min from 0-175° C., modulation amplitude of ±1° C. and a period of 60 seconds.

[2] = Slurry of Form A in DI water, anhydrate to hydrate conversion by XRPD; format: physicochemical
Procedure: Conversion of anhydrous Form A to Form B was investigated. […] To check for hydrate formation, Form A was slurried in DI water for 4 days (RT). Form conversion (anhydrate to hydrate) was initiated at 12 hours and was complete within 4 days, as detected by XRPD with reference to Form B. Anhydrate (Form A) to hydrate (Form B) conversion was measured upon slurrying in DI water for 4 days. […] Form conversion is complete by 96 hrs.

[3] = Particle size distribution analysis (PSD); format: physicochemical
Procedure: Particle size analysis was performed using a Malvern Mastersizer 2000 instrument equipped with a Hydros 2000SM wet dispersion attachment (Malvern Instruments Ltd., Malvern, UK). ˜30 mg of API was weighed into a vial and 1 mL of 0.1% Span 85 in heptane was added. The vial was sonicated for 5 seconds, about 0.3 mL was added to the sampler at a stir speed of 1500 rpm, and a PSD was performed at an obscuration of 10-20%. The sample was then sonicated for 10 more seconds (a total of 15 seconds), about 0.3 mL was added to the sampler, a PLM image was acquired, and PSD was performed. The same sample was then sonicated for another 15 seconds (a total of 30 seconds), about 0.3 mL was added, a PLM photo was taken and PSD was performed. From the sonication study, an appropriate sonication period was chosen. The PLM images and PSDs were used to determine how much sonication the sample needed to disperse clumps but prevent or minimize crystal fracturing. Three more samples, of ˜10 mg, were weighed into vials and 1 mL of 0.1% Span 85 in heptane was added. The samples were sonicated for the sonication period determined in the sonication study. The final PSD analysis was performed in triplicate using the predetermined sonication period. The instrument was rinsed twice with isopropyl alcohol (IPA) and once with heptane before being filled with 0.1% Span 85 in heptane for each sample. After the last sample had run, the instrument was rinsed with IPA once.

[4] = Stability study of milled Form A in open vials; format: physicochemical; conditions: up to 8 weeks
Procedure: as §1

[5] = Water sorption analysis (dynamic vapor sorption); format: physicochemical
Procedure: About 5-6 mg of powder sample was placed in the sample pan of an automated water sorption analyzer (Q5000SA, TA instruments, New Castle, DE) at 25° C. and a nitrogen flow rate of 200 mL/min. The sample was initially “dried” at 0% RH for a total of 600 minutes (at 60 followed by 25° C.), following which it was subjected to progressive increase in RH from 0-90%, in increments of 10% with a dwell time of 240 minutes at every RH with a dm/dt window of 0.001% for 30 minutes. This was followed by a progressive decrease in RH in decrements of 10% back to 0% RH, using the same protocol. For hydrate samples, the process was reversed where the starting RH was maintained at 90%, followed by a progressive step-wise lowering to 0%, followed by similar step wise increase back to 90%. This was done to ensure that the water of hydration is retained at the start of the experiment.

[6] = Water solubility of Form A; format: physicochemical; conditions: pH 7.06, water, room temperature, pH of 7.06
Description: The trihydrate form was obtained by slurrying Form A in DI water over 4 days (RT), centrifuging the slurry to remove supernatant and then drying the solid at RT for a few hours.

[7] = Slurry bridging of Forms A and D (1:1) in n-propanol; format: physicochemical
Procedure: Based on Burger and Ramberger's “Heat of Fusion Rule” of polymorphism, two polymorphs are considered to be monotropic if the one with the higher melting point has a greater heat of fusion as well (Burger and Ramberger, Mikrochimica Acta (1979), 256). […] To confirm this further, a slurry bridging experiment was conducted at RT in n-propanol, which had previously yielded Form D from the crude API.
(§2) Deionized (DI) Water-ethanol (absolute alcohol) mixtures of different compositions ranging from 0-100% water were prepared and their water activities were measured using a water activity meter. Slurry experiments were set up at RT wherein 1:1 mixtures of trihydrate and anhydrous forms of GDC-0077 (40 mg total) were added to these solvent mixtures (1.5 mL liquid) and agitated at RT over 4 days. After 4 days, the samples were aliquoted and centrifuged. The solids were analyzed by XRPD and the supernatant was analyzed for water activity. 1:1 mixture of Forms A and D was slurried in in-propanol overnight at RT. The slurry was centrifuged and the solid form was analyzed by XRPD.

[8] = Isothermal TGA dehydration of Form B; format: physicochemical; conditions: TGA held at 60° C.
Procedure: The desolvation behavior of Form B as well its ability to rehydrate was further characterized. […] As evident from the data, the hydrate dehydrates readily, losing almost all of its lattice water (12%) at 60° C. and rehydrates after 4 hours of equilibration which indicates easy passage of water in and out of the lattice. The water sorption desorption behavior of trihydrate Form B GDC-0077 at 25° C. is depicted in FIG. 10A. The dynamic vapor sorption experiment provides information about the dehydration behavior of Form B. Dehydration of Form B commences rapidly below 40% RH (desorption curve) and is complete by the time the sample is exposed to 0% RH. Although there is a hysteresis showing equilibrium lag, the anhydrous product rehydrates beyond 40% RH, equally readily. […] The trihydrate dehydrates in 2-3 steps whereas the anhydrate to hydrate formation occurs majorly in one step at >40% RH (25° C.).
Isothermal experiments: In a thermogravimetric analyzer (Q500 TGA, TA instruments), 3-4 mg of GDC-0077 samples were heated in an open aluminum pan from RT to 60° C. at a heating rate of 10° C./min held isothermally at 60° C. overnight. Samples were then either analyzed by XRPD or left to equilibrate at RT for 4 hours in the sample pan and then rerun isothermally at 60° C. using the same experimental parameters as mentioned above.

[9] = Slurry bridging of hydrate-anhydrate mixtures in ethanol-water mixtures, water activity; format: physicochemical; conditions: RT
Procedure: as §2, with “XRPD. An Aqualab 4TEV (Decagon Devices, WA) was used as the water activity meter in the capacitance sensor mode to acquire data at 25±0.2° C. for solvent mixtures and slurry supernatants. Instrument was calibrated using vendor provided standards (saturated salt solutions) over the aw range of 0.25-1. All aw values are obtained after stabilization of three consecutive reads.” for “XRPD.”

PI3K = PI3K (Homo sapiens, UniProt P42336); conditions: WO 2017/001645, US 2017/0015678, AACR 2017; cited from earlier work
Sequence of PI3K (P42336 whole entry): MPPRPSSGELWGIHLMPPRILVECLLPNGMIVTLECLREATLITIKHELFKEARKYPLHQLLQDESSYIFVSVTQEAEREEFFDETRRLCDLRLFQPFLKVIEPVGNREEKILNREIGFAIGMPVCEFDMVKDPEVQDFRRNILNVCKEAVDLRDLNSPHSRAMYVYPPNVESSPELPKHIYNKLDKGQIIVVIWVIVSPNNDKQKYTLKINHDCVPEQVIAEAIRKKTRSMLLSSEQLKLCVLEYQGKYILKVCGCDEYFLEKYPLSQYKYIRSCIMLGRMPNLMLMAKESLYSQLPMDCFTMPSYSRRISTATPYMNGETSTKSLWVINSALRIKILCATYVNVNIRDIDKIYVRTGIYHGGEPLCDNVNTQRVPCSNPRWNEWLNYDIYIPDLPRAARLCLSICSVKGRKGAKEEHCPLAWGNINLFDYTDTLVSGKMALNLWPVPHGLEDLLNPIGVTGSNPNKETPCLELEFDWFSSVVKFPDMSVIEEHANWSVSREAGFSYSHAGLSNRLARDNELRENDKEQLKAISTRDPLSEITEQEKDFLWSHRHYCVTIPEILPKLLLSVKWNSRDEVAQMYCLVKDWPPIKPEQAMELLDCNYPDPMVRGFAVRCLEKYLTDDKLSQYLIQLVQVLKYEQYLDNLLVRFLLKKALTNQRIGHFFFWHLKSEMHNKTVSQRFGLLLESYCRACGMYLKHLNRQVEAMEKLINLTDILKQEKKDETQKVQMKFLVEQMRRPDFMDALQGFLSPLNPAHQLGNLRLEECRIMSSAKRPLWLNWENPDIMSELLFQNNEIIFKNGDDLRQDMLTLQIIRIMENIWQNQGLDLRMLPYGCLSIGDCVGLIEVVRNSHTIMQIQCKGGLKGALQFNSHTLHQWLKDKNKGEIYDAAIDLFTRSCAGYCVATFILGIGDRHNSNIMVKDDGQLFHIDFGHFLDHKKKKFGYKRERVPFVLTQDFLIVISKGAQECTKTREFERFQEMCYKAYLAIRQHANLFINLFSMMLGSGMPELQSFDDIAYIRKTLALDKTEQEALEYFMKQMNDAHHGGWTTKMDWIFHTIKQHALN
Sequence of PI3K (P27986 whole entry partner): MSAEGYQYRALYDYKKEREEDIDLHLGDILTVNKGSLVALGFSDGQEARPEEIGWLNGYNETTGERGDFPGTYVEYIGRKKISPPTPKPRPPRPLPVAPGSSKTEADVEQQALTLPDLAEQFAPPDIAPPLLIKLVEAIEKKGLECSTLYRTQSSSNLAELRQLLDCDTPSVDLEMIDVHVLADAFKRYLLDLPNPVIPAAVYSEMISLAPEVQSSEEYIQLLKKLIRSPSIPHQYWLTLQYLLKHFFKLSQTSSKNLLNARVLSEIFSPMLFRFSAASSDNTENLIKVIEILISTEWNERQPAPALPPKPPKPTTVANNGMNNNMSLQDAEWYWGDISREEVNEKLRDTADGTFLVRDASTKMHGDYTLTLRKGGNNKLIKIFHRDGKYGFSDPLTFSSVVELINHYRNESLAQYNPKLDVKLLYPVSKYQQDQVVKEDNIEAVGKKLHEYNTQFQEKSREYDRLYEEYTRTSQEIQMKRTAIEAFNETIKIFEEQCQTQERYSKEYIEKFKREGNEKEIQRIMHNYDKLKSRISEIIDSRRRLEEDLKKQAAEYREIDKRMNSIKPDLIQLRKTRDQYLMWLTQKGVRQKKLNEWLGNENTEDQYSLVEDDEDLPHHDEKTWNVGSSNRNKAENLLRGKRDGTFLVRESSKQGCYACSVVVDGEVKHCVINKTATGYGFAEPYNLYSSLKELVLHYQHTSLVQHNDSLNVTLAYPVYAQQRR

[10] = Surface area analysis (BET); format: physicochemical; conditions: for BET Surface Area: Krypton gas adsorption
Procedure: Surface area measurement was conducted using a Micromeritics ASAP 2460 with a Micromeritics Smart VacPrep attachment (Micromeritics Instrument Corp., GA). A sample of 500 mg-1 g was weighed into an empty ASAP 2460 tube and placed on the Smart VacPrep, degassed for 24 hours under ambient conditions and then exposed to Krypton gas adsorption at […] and 100 mm Hg hold pressure. An 11-point measurement was made in the relative pressure range of 0.050-0.300 and the data was analyzed using MicroActive software provided by the vendor.

[11] = listed as printed without sonication time
[12] = after jet milling 3.5 hrs, 60 psi

Compound: C[C@H](Nc1ccc2c(c1)OCCn1cc(N3C(=O)OC[C@H]3C(F)F)nc1-2)C(N)=O [Form A, (S)-2-((2-((S)-4-(difluoromethyl)-2-oxooxazolidin-3-yl)-5,6-dihydrobenzo[f]imidazo[1,2-d][1,4]oxazepin-9-yl)amino) propanamide]
- physical form upon milling [1]: remains stable
- time by which form conversion is complete [2]: ≤ 96 h
- time at which anhydrate to hydrate conversion was initiated ([2]; RT): 12 h
- time to complete anhydrate to hydrate conversion ([2]; RT): ≤ 4 days
- time within which anhydrate to hydrate conversion starts ([2]; hydrate marker peak by XRPD): ≤ 12 h
- D10 ([3]; 5 sec sonication): 3.24 μm
- D50 ([3]; 5 sec sonication): 14.87 μm
- D90 ([3]; 5 sec sonication): 40.92 μm
- D[4.3] ([3]; 5 sec sonication): 19.09 μm
- D10 ([3]; 15 sec sonication): 2.70 μm
- D50 ([3]; 15 sec sonication): 10.93 μm
- D90 ([3]; 15 sec sonication): 27.59 μm
- D[4.3] ([3]; 15 sec sonication): 13.44 μm
- D10 [3, 11]: 4.76 μm
- D50 [3, 11]: 27.73 μm
- D90 [3, 11]: 208.16 μm
- D[4.3] [3, 11]: 74.60 μm
- physical form stability ([4]; 25° C./60% RH): remains stable
- physical form stability ([4]; 40° C./75% RH): remains stable
- moisture uptake (water sorption) ([5]; 25° C., up to 90% RH): 0.25 % w/w
- moisture uptake (water sorption) ([5]; 25° C., up to 90% RH, listed as Form I): < 0.3 % w/w
- solubility [6]: 30.8 µg/mL (≈ 75.6 µM)
- relative thermodynamic stability of the forms ([7]; Form A versus Form D, RT to 214° C.): thermodynamically stable form; also recorded: more stable form

Compound: C[C@H](Nc1ccc2c(c1)OCCn1cc(N3C(=O)OC[C@H]3C(F)F)nc1-2)C(N)=O [Form B, (S)-2-((2-((S)-4-(difluoromethyl)-2-oxooxazolidin-3-yl)-5,6-dihydrobenzo[f]imidazo[1,2-d][1,4]oxazepin-9-yl)amino) propanamide]
- RH below which dehydration commences (desorption curve) ([5]; 25° C.): below 40 % RH
- RH range where intermediate dehydrated form is evident ([5]; 25° C., desorption): 20-50 % RH
- RH beyond which the anhydrous product rehydrates ([5]; 25° C., resorption): > 40 % RH
- lattice water lost on isothermal dehydration [8]: 12%

Compound: C[C@H](Nc1ccc2c(c1)OCCn1cc(N3C(=O)OC[C@H]3C(F)F)nc1-2)C(N)=O [Form D, (S)-2-((2-((S)-4-(difluoromethyl)-2-oxooxazolidin-3-yl)-5,6-dihydrobenzo[f]imidazo[1,2-d][1,4]oxazepin-9-yl)amino) propanamide]
- form conversion in slurry ([7]; Forms A and D 1:1, n-propanol, RT, overnight): converts to Form A

Compound: C[C@H](Nc1ccc2c(c1)OCCn1cc(N3C(=O)OC[C@H]3C(F)F)nc1-2)C(N)=O [GDC-0077, (S)-2-((2-((S)-4-(difluoromethyl)-2-oxooxazolidin-3-yl)-5,6-dihydrobenzo[f]imidazo[1,2-d][1,4]oxazepin-9-yl)amino) propanamide]
- aw of anhydrate-hydrate equilibrium [9]: 0.82-0.86
- equilibrium RH (relative humidity) zone for the two forms [9]: 82-86%
- water content equivalent to equilibrium RH zone [9]: 65-83 % w/w
- PI3K activity (PI3K): potent

Compound: C[C@H](Nc1ccc2c(c1)OCCn1cc(N3C(=O)OC[C@H]3C(F)F)nc1-2)C(N)=O [Jet Milled]
- D10 [3, 12]: 0.7 μm
- D50 [3, 12]: 2.7 μm
- D90 [3, 12]: 6.7 μm
- increase in moisture uptake compared to the unmilled material ([5]; water sorption profile): 1 % w/w
- BET Surface Area [10]: 6.68 ± 0.16 m2/g
- BET Surface Area ([10]; listed as milled lot): 6.68 m2/g
- surface area from sauter mean diameter (D3,2) ([10]; calculated from particle size): 3.42 m2/g
- increase in surface area upon milling ([10]; milled versus unmilled): 10 ×

Compound: C[C@H](Nc1ccc2c(c1)OCCn1cc(N3C(=O)OC[C@H]3C(F)F)nc1-2)C(N)=O [Unmilled]
- weight gain (water sorption) ([5]; up to 90% RH): 0.25%
- BET Surface Area [10]: 0.78 ± 0.03 m2/g
- BET Surface Area ([10]; listed as unmilled material): 0.78 m2/g
